According to patent US20110070293A1, “Methods for the Preparation of Liposomes Comprising Docetaxel” (priority 2009, published 2011):
Read-outs that look alike come from different tables or passages of the source.

Experiments:
[1] = Solubilization of docetaxel in fatty acid, fatty acid salt or oleate liposome media; assay type: physicochemical; conditions: for solubility: aqueous with cosolvent or surfactant or cyclodextrin
Experimental: (§1) Docetaxel (5 mg) was added to 31 μL of oleic acid and mixed using a VORTEX®. Ethanolamine (6 μL) was subsequently added and mixed using a VORTEX®. After mixing, the sample was dispersed in 963 μL of water for injection. Docetaxel was soluble and the formulation clear at 5 mg/mL. Docetaxel remained soluble, and the formulation was stable, upon dilution (1:10 in 2.5% glycerol) up to 24 hours as analyzed by a reverse phase high performance liquid chromatography method.
(§2) Docetaxel (5.0 mg) was added to 1 mL of 0.05 M sodium oleate and mixed using a VORTEX®. Docetaxel was soluble and the formulation clear at 5.0 mg/mL. Docetaxel remained soluble, and the formulation was stable, upon dilution (1:10 in 2.5% glycerol) up to 24 hours as analyzed by a reverse phase high performance liquid chromatography method.
as §2, with “(2” for “(5.0”, “1” for “0.05”, “caprylate” for “oleate”, “by” for “using”, “2” for “5.0”, “(1:2” for “(1:10 in”
as §2, with “(7.0” for “(5.0”, “1” for “0.05”, “linoleate” for “oleate”, “7.0” for “5.0”, “(1:10” for “(1:10 in”
(§3) Docetaxel (5 mg) was added to 1 mL of pre-made liposome containing 2 mM sodium oleate and 6% soy phosphatidyl choline, 10% trehalose, pH adjusted to 5-7 using Acetic acid, mixed using a VORTEX®, and microfluidized using a Microfluidizer with 10 passes at 15,000 psi. Five additional passes with the Microfluidizer at 15,000 psi were made to incorporate all 5 mg of the drug into 1 mL of pre-made liposome. Docetaxel was soluble and the formulation was transparent at 5 mg/mL. Docetaxel remained soluble, and the formulation was stable, upon dilution (1:10 in D5W) up to 48 hours as analyzed by a reverse phase high performance liquid chromatography method.
(§4) Hydrophobic or lipophilic compounds can be solubilized directly in sodium (or any ion) salt of fatty acid dissolved in an organic solvent. The organic solvent is subsequently removed using rotary evaporation, spray drying, or any other pharmaceutically acceptable processes. The drug-sodium salt of fatty acid mixture is subsequently dispersed in water, isotonic glycerol, or any pharmaceutically acceptable isotonic solution to achieve a desired concentration of the solubilized compound. For example, docetaxel (5 mg/mL) was dissolved in 100 mM sodium oleate in 100% ethanol. Ethanol was completely evaporated using rotary evaporation at 20° C. The docetaxel-sodium oleate was reconstituted with Water For Injection (“WFI”) or 2.5% glycerol to provide 5 mg/mL, 10 mg/mL, or 20 mg/mL concentration of docetaxel.
(§5) 50 μl of Docetaxel in ethanol (100 mg/mL) was added to 1 mL of pre-made liposome containing 2 mM sodium oleate and 6% soy phosphatidyl choline, 10% trehalose and pH adjusted to 5-7 using Acetic acid, mixed using a VORTEX® and microfluidized using a Microfluidizer with 10 passes at 15,000 psi. Docetaxel was soluble and the formulation is transparent at 5 mg/mL. Docetaxel remained soluble, and the formulation was stable, upon dilution (1:10 in D5W) up to 48 hours as analyzed by a reverse phase high performance liquid chromatography method. […] The lyophilized product is reconstituted with water for injection at 5 mg, 10, or 20 mg/mL concentration, essentially free of organic solvent.

[2] = Stability of docetaxel formulations upon dilution (reverse phase HPLC) and after lyophilization; assay type: physicochemical; conditions: for time docetaxel remained soluble and formulation stable upon dilution: RP-HPLC
Experimental: as §1, §2
as §2, with “(2” for “(5.0”, “1” for “0.05”, “caprylate” for “oleate”, “by” for “using”, “2” for “5.0”, “(1:2” for “(1:10 in”
as §2, with “(7.0” for “(5.0”, “1” for “0.05”, “linoleate” for “oleate”, “7.0” for “5.0”, “(1:10” for “(1:10 in”
as §3, §4, §5

[3] = Incorporation of docetaxel into liposome; assay type: physicochemical
Experimental: As provided herein, the sequence of the addition of docetaxel results in enhanced solubility of the docetaxel. The conventional method of incorporating a hydrophobic drug into liposome is by adding the drug to lipid before liposome preparation. See, e.g., Immordino, M. L. et al., Journal of Controlled Release, 2003, 91: 417-429. By the conventional process, the incorporation of the drug is only 0.3 to 0.7 mg/mL. When docetaxel is added after liposome preparation, the incorporation of docetaxel is increased from 0.3 mg/mL to 5 mg/mL, which is more than 10 fold increase in solubility of the drug in lipid alone.
In the conventional liposome preparation, the drug to lipid molar percent ratio is 4-6% with the incorporation of drug into liposome efficiency is only 56%. See Immordino, M. L. et al., Journal of Controlled Release, 2003, 91: 417-429.

[4] = cited from earlier work
[5] = docetaxel added to pre-made liposome
[6] = conventional liposome preparation (Immordino et al.)

- solubility ([1]; 0.05 M sodium oleate solution, Example 7: 0.05 M sodium oleate, read-out: concentration at which docetaxel was soluble and formulation clear): 5000 µg/mL
- solubility ([1]; 1 M sodium caprylate solution, Example 8: 1 M sodium caprylate, read-out: concentration at which docetaxel was soluble and formulation clear): 2000 µg/mL
- solubility ([1]; 1 M sodium linoleate solution, Example 9: 1 M sodium linoleate, read-out: concentration at which docetaxel was soluble and formulation clear): 7000 µg/mL
- concentration at which docetaxel was soluble and formulation transparent ([1]; Example 12: docetaxel in ethanol added to pre-made liposome, 2 mM sodium oleate, 6% soy phosphatidyl choline, 10% trehalose, pH 5-7): 5000 µg/mL
- solubility ([1]; Example 10: solid docetaxel in pre-made liposome, 2 mM sodium oleate, 6% soy phosphatidyl choline, 10% trehalose, pH 5-7, read-out: concentration at which docetaxel was soluble and formulation transparent): 5000 µg/mL
- solubility ([1]; oleic acid / ethanolamine dispersion in water for injection, Example 6: oleic acid, ethanolamine, water for injection, read-out: concentration at which docetaxel was soluble and formulation clear): 5000 µg/mL
- time docetaxel remained soluble and formulation stable upon dilution ([2]; Example 6: oleic acid/ethanolamine, dilution 1:10 in 2.5% glycerol): up to 24 hours
- time docetaxel remained soluble and formulation stable upon dilution ([2]; Example 7: 0.05 M sodium oleate, dilution 1:10 in 2.5% glycerol): up to 24 hours
- time docetaxel remained soluble and formulation stable upon dilution ([2]; Example 8: 1 M sodium caprylate, dilution 1:2 2.5% glycerol): up to 24 hours
- time docetaxel remained soluble and formulation stable upon dilution ([2]; Example 9: 1 M sodium linoleate, dilution 1:10 2.5% glycerol): up to 24 hours
- time docetaxel remained soluble and formulation stable upon dilution ([2]; Example 10: oleate liposome, dilution 1:10 in D5W): up to 48 hours
- time docetaxel remained soluble and formulation stable upon dilution ([2]; Example 12: oleate liposome, dilution 1:10 in D5W): up to 48 hours
- incorporation of docetaxel into liposome ([3]; docetaxel added after liposome preparation): 5 mg/mL
- increase in solubility of the drug versus lipid alone ([3]; docetaxel added after liposome preparation vs 0.3 mg/mL): more than 10 fold
- drug to lipid molar ratio [3, 5]: 8%
- efficiency of incorporation of docetaxel into liposome [3, 5]: about 100%
Compound: CC(=O)O[C@@]12CO[C@@H]1C[C@H](O)[C@@]1(C)C(=O)[C@H](O)C3=C(C)[C@@H](OC(=O)[C@H](O)[C@@H](NC(=O)OC(C)(C)C)c4ccccc4)C[C@@](O)([C@@H](OC(=O)c4ccccc4)[C@H]21)C3(C)C [Docetaxel]
- time reconstituted docetaxel remained in solution ([2]; Example 11: docetaxel-sodium oleate reconstituted with WFI or 2.5% glycerol): 2 hours, 4 hours, 6 hours, 8 hours or 24 hours
- drug to lipid molar percent ratio [4, 6]: 4-6%
- efficiency of incorporation of drug into liposome [4, 6]: 56%
- incorporation of the drug into liposome ([4]; conventional process: drug added to lipid before liposome preparation (Immordino et al.)): 0.3 to 0.7 mg/mL
